According to the supplement of paper PMC10331698:
± gives the standard deviation of the averaged measurements.

Legend:
Assay in all cases: level (log10 ratio to DMSO vehicle control); higher = higher biomarker level / cell amount than vehicle control
Conditions in all cases: in DMSO
Perfluoro-1-iodohexane = compound: FC(F)(F)C(F)(F)C(F)(F)C(F)(F)C(F)(F)C(F)(F)I [Perfluoro-1-iodohexane]
Method: (§1)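 BioMAP Diversity Plus panel of 12 human primary cell co-culture systems (3C, 4H, LPS, SAg, BT, BF4T, BE3C, CASM3C, HDF3CGF, KF3CT, MyoF, Mphg). Compounds were added 1 h before stimulation and left for 24 h (MyoF 48 h; BT 72 h for soluble read-outs or 6 d for IgG). Biomarkers were read by ELISA, cytotoxicity by SRB, PBMC viability and proliferation by Alamar Blue. Each well value was divided by the mean of 8 DMSO control wells on the same plate and log10 transformed; duplicate blinded samples were tested at 4 concentrations.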

[1] = compound: C=C(C)C(=O)OCCC(F)(F)C(F)(F)C(F)(F)C(F)(F)C(F)(C(F)(F)F)C(F)(F)F [(Perfluoro-5-methylhexyl)ethyl 2-methylprop-2-enoate]
Method: as §1

Perfluorobutanoic acid = compound: O=C(O)C(F)(F)C(F)(F)C(F)(F)F [Perfluorobutanoic acid]
Method: as §1

[2] = compound: O=C(O)C(F)(F)C(F)(F)C(F)(F)OC(F)(C(F)(F)F)C(F)(F)F [Perfluoro-4-isopropoxybutanoic acid]
Method: as §1

[3] = compound: FC(F)(F)C(F)(F)C(F)(F)C(F)(F)C(F)(F)CCI [1-Iodo-1H,1H,2H,2H-perfluoroheptane]
Method: as §1

[4] = compound: O=C(O)C(F)(F)C(F)(F)C(F)(F)C(F)(F)C(F)(F)C(F)(F)C(F)(F)C(F)F [9-H-Perfluorononanoic acid]
Method: as §1

Pentafluoropropionamide = compound: NC(=O)C(F)(F)C(F)(F)F [Pentafluoropropionamide]
Method: as §1

| Test System | level (log10) (Perfluoro-1-iodohexane; 6700 nM) | level (log10) (Perfluoro-1-iodohexane; 20000 nM) | level (log10) (Perfluoro-1-iodohexane; 60000 nM) | level (log10) ([1]; 6700 nM) | level (log10) ([1]; 20000 nM) | level (log10) (Perfluorobutanoic acid; 6700 nM) | level (log10) (Perfluorobutanoic acid; 20000 nM) | level (log10) (Perfluorobutanoic acid; 60000 nM) | level (log10) ([2]; 6700 nM) | level (log10) ([2]; 20000 nM) | level (log10) ([2]; 60000 nM) | level (log10) ([3]; 6700 nM) | level (log10) ([3]; 20000 nM) | level (log10) ([3]; 60000 nM) | level (log10) ([4]; 6700 nM) | level (log10) ([4]; 20000 nM) | level (log10) ([4]; 60000 nM) | level (log10) (Pentafluoropropionamide; 6700 nM) | level (log10) (Pentafluoropropionamide; 20000 nM) | level (log10) (Pentafluoropropionamide; 60000 nM) |
| --- | --- | --- | --- | --- | --- | --- | --- | --- | --- | --- | --- | --- | --- | --- | --- | --- | --- | --- | --- | --- |
| LPS:IL-1alpha | -0.048 ± 0.035 | -0.042 ± 0.021 | -0.004 ± 0.0014 | -0.0515 ± 0.096 | -0.0355 ± 0.023 | -0.0225 ± 0.032 | -0.0305 ± 0.019 | -0.0035 ± 0.016 | -0.043 ± 0.0071 | -0.0015 ± 0.013 | 0.0205 ± 0.064 | 0.023 ± 0.033 | 0.0055 ± 0.022 | 0.0205 ± 0.0064 | 0.0095 ± 0.042 | -0.0105 ± 0.00071 | -0.014 ± 0.0099 | 0.0225 ± 0.036 | -0.0175 ± 0.019 | 0.0255 ± 0.047 |
| BF4T:Keratin 8/18 | -0.0075 ± 0.067 | -0.023 ± 0.016 | -0.015 ± 0.088 | -0.024 | -0.0115 ± 0.0078 | -0.0015 ± 0.0092 | -0.011 ± 0.011 | 0.0075 ± 0.018 | -0.002 ± 0.0014 | -0.0115 ± 0.0021 | 0.0025 ± 0.011 | 0.0135 ± 0.022 | -0.0085 ± 0.005 | -0.015 ± 0.0028 | -0.007 ± 0.052 | 0.0065 ± 0.044 | 0.0005 ± 0.0035 | 0.0075 ± 0.043 | 0.0395 ± 0.05 | 0.0075 ± 0.032 |
| BF4T:SRB | -0.006 ± 0.0085 | -0.011 ± 0.011 | -0.0135 ± 0.016 | -0.016 ± 0.011 | -0.007 ± 0.025 | -0.012 ± 0.0071 | -0.0055 ± 0.00071 | 0 ± 0.0042 | -0.007 ± 0.0057 | -0.015 | -0.005 ± 0.0099 | -0.003 ± 0.0014 | -0.0035 ± 0.00071 | 0.006 ± 0.016 | -0.018 ± 0.0085 | -0.018 ± 0.0071 | -0.016 ± 0.0014 | -0.0035 ± 0.00071 | -0.007 ± 0.0071 | -0.004 ± 0.0042 |
| BT:sIL-6 | 0.0615 ± 0.0035 | 0.028 ± 0.057 | 0.039 ± 0.045 | -0.0095 ± 0.025 | 0.0305 ± 0.073 | 0.019 ± 0.064 | 0.055 ± 0.033 | -0.0415 ± 0.088 | 0.019 ± 0.044 | 0.019 ± 0.025 | 0.0035 ± 0.047 | -0.0395 ± 0.043 | 0.0425 ± 0.033 | -0.077 ± 0.0099 | -0.0315 ± 0.0064 | 0.06 ± 0.064 | -0.0215 ± 0.079 | 0.055 ± 0.027 | 0.017 ± 0.023 | -0.0095 ± 0.052 |
| 3C:HLA-DR | 0.0025 ± 0.0035 | -0.011 ± 0.0057 | -0.001 ± 0.017 | -0.004 ± 0.016 | -0.023 ± 0.02 | -0.0035 ± 0.028 | -0.0215 ± 0.00071 | -0.0115 ± 0.021 | 0.0145 ± 0.044 | -0.0035 ± 0.005 | 0.002 ± 0.016 | -0.001 ± 0.016 | 0.006 ± 0.0042 | -0.0035 ± 0.0064 | -0.005 ± 0.0028 | 0.0005 ± 0.0021 | 0.028 ± 0.02 | -0.0255 ± 0.029 | -0.0165 ± 0.013 | -0.0125 ± 0.00071 |
| BE3C:CXCL9/MIG | 0.0085 ± 0.0035 | -0.002 ± 0.0071 | -0.0035 ± 0.018 | 0.009 ± 0.013 | 0.008 ± 0.0071 | 0.002 ± 0.0071 | -0.004 ± 0.013 | -0.0005 ± 0.00071 | 0.001 ± 0.0028 | 0.012 ± 0.0071 | 0.014 ± 0.017 | -0.001 ± 0.0014 | -0.008 ± 0.0042 | -0.008 ± 0.013 | -0.0255 ± 0.005 | -0.0285 ± 0.005 | -0.02 ± 0.0099 | 0.004 ± 0.0028 | -0.0015 ± 0.011 | 0.0075 ± 0.0035 |
| BF4T:MMP-1 | 0.0045 ± 0.005 | 0.0035 ± 0.0035 | 0.009 ± 0.011 | -0.0205 ± 0.0021 | -0.0095 ± 0.0021 | 0.0045 ± 0.022 | -0.01 ± 0.017 | 0.0075 ± 0.015 | -0.0035 ± 0.022 | 0.0155 ± 0.026 | 0.027 ± 0.03 | -0.001 ± 0.0057 | -0.0015 ± 0.00071 | 0.008 ± 0.013 | 0.005 ± 0.021 | -0.0075 ± 0.039 | 0.0925 ± 0.00071 | -0.005 ± 0.0099 | -0.0105 ± 0.0078 | 0.012 ± 0.016 |
| SAg:CXCL8/IL-8 | 0.0365 ± 0.016 | -0.004 ± 0.0071 | 0.002 ± 0.059 | 0.0115 ± 0.012 | 0.0405 ± 0.079 | -0.0025 ± 0.0092 | -0.005 ± 0.0085 | 0.0335 ± 0.028 | 0.009 ± 0.037 | 0.02 ± 0.02 | 0.071 ± 0.023 | -0.0585 ± 0.042 | -0.061 ± 0.016 | 0.007 ± 0.042 | 0.01 ± 0.018 | 0.0005 ± 0.0064 | 0.0715 ± 0.013 | -0.0245 ± 0.025 | -0.0255 ± 0.036 | 0.0075 ± 0.04 |
| 3C:SRB | -0.0035 ± 0.00071 | -0.0155 ± 0.00071 | -0.0155 ± 0.0021 | -0.008 ± 0.0042 | -0.0175 ± 0.0078 | -0.021 ± 0.027 | -0.017 ± 0.013 | -0.0085 ± 0.0035 | 0.0005 ± 0.011 | -0.0075 ± 0.015 | -0.017 ± 0.024 | 0.006 ± 0.013 | -0.019 ± 0.0042 | -0.0175 ± 0.013 | -0.005 ± 0.028 | -0.0115 ± 0.016 | -0.052 ± 0.025 | 0.008 ± 0.031 | -0.001 ± 0.011 | -0.025 ± 0.011 |
| SAg:CD62E/E-Selectin | -0.009 ± 0.0014 | 0.0055 ± 0.019 | 0.0095 ± 0.044 | 0.0215 ± 0.011 | 0.007 ± 0.014 | -0.026 ± 0.0042 | -0.024 ± 0.0057 | -0.024 ± 0.013 | -0.0025 ± 0.0021 | 0.0125 ± 0.015 | -0.01 ± 0.023 | 0.023 ± 0.062 | -0.0295 ± 0.0078 | 0.017 ± 0.0085 | -0.015 ± 0.013 | -0.0075 ± 0.013 | 0.065 ± 0.031 | -0.0215 ± 0.005 | -0.0095 ± 0.026 | -0.0115 ± 0.018 |
| BF4T:MMP-3 | 0.004 ± 0.0057 | 0.017 | 0.0635 ± 0.035 | -0.0975 ± 0.022 | -0.057 ± 0.041 | 0.0005 ± 0.035 | 0.0045 ± 0.015 | 0.006 ± 0.033 | -0.0095 ± 0.013 | -0.0015 ± 0.029 | 0.042 ± 0.1 | -0.006 ± 0.034 | -0.0015 ± 0.0078 | 0.0545 ± 0.021 | -0.0115 ± 0.03 | -0.0025 ± 0.00071 | 0.075 ± 0.0071 | -0.024 ± 0.011 | -0.007 | -0.003 ± 0.033 |
| BF4T:tPA | 0.0015 ± 0.005 | -0.0065 ± 0.018 | 0.036 ± 0.047 | -0.002 ± 0.0057 | -0.037 ± 0.031 | 0.0025 ± 0.005 | 0.0105 ± 0.011 | 0.011 ± 0.013 | -0.036 ± 0.017 | -0.015 ± 0.016 | 0.0145 ± 0.057 | -0.0055 ± 0.012 | -0.003 ± 0.011 | 0.0065 ± 0.012 | -0.094 ± 0.014 | -0.128 ± 0.012 | -0.122 ± 0.019 | -0.013 ± 0.0028 | -0.014 ± 0.0042 | 0 ± 0.02 |
| BE3C:EGFR | 0.0095 ± 0.00071 | -0.0055 ± 0.0021 | 0.0285 ± 0.013 | -0.0065 ± 0.011 | 0.009 ± 0.014 | 0.002 ± 0.0042 | 0.005 ± 0.0099 | -0.0035 ± 0.0035 | 0.012 ± 0.027 | 0.0075 ± 0.005 | 0.044 ± 0.042 | 0.0195 ± 0.0078 | 0.0085 ± 0.019 | 0.009 ± 0.028 | -0.028 ± 0.0099 | -0.022 ± 0.021 | -0.0425 ± 0.023 | -0.019 ± 0.016 | -0.0095 ± 0.015 | -0.0235 ± 0.04 |
